In one assay the target is T1, human A3 receptors (Homo sapiens, UniProt P0DMS8).
T1 construct: expressed in transfected cells; host or cells: HEK-293 cells, stably transfected; membrane preparation
T1 sequence (P0DMS8 1-318): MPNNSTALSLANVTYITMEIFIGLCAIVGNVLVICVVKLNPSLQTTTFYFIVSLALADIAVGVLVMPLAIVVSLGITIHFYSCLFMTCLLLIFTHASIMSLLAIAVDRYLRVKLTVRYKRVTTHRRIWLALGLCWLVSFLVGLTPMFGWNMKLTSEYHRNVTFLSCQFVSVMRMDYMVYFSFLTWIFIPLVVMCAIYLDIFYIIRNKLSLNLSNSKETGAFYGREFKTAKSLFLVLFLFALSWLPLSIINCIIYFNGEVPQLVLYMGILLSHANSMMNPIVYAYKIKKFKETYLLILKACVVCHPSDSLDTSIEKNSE
The assay is described as follows: Adenosine receptor binding assay ([3H]HEMADO competition). The settings on record: Cheng-Prusoff, read-out: hA3 Ki. The source says:
Materials and Reference Compounds: [^3H] HEMADO (obtained from (ARC, Cat: ART1456) and [3H] DPCPX (obtained from PerkinElmer Cat no. NET974250UC)). IB-MECA was obtained from Tocris (Bristol, UK) and N6-cyclopentyl adenosine (CPA) is obtained from Sigma-Alrich (Poole, UK). Cell culture media, G418 and hygromycin are obtained from Invitrogen (Paisley, UK). Fetal calf serum is obtained from Perbio Science (Cheshire, UK). All other reagents are obtained from Fisher Chemicals (Loughborough, UK).
The method followed is that of Yates L, Clark J H, Martin T J, James S, Broadley K J, Kidd E J. Radioligand binding and functional responses of ligands for human recombinant adenosine A3 receptors. Auton Autacoid Pharmacol. 2006; 26 (2): 191-200. Cells stably transfected with the human adenosine A3 or A1 receptor are grown in Dulbecco's modified Eagles medium with nutrient mixture F12 containing NaHCO3 and Glutamax. Media is supplemented with 10% fetal calf serum, geneticin (G418; 0.67 mg/mL), hygromycin (500 μg/mL) and adenosine deaminase (1 U/mL). Cells are maintained at 37° C. with 5% CO2 in air. Cells are harvested and homogenized in ice-cold Tris buffer [50 mM Tris, 150 mM NaCl, 1 mM ethylenediaminetetraacetic acid (EDTA), pH 7.4] supplemented with the peptidase inhibitors, 4-(2-aminoethyl)benzene sulfonylfluoride (1 mM) and bacitracin (0.1 mg/mL), using a Polytron homogenizer (3×10 s bursts). The homogenate is spun for 10 min (4° C.) at 500 g. The supernatant is retained and the pellet is re-suspended in the buffer, homogenized and spun as above. The combined supernatants are centrifuged for 15 min (4° C.) at 48,000 g. The resultant pellet is re-suspended in the buffer and centrifuged for a second time at 48,000 g. The membrane pellet is then suspended in Tris buffer containing no peptidase inhibitors or adenosine deaminase and stored at −80° C. at a protein concentration of 1 mg/mL.
Binding Assays: Radioligand-binding assays are performed using the adenosine A3 receptor agonist [^3H] HEMADO and the A1 receptor […] [^3H] DPCPX. Binding assays are conducted in a total volume of 100 μL containing a 50 mM Tris, pH 7.4 buffer with or without 10 mM MgCl2, 20 μg membranes and either 4.154 nM [3H] HEMADO (for the A3 receptor) or 1.6065 nM [^3H] DPCPX (for the A1 receptor). Assays are conducted at room temperature for 60 min (A1 receptor) or 120 min (A3 receptor) and terminated by the addition of 2 ml of ice-coldish buffer (50 mM Tris, pH 7.4 with or without 10 mM MgCl2) and rapid filtration over 0.03% polyethylenimine-treated Whatman GF/C filters using a Brandel cell harvester (Semat International Ltd., St Albans, UK). Filters are then ished three times with 2 ml of ice-cold buffer. The filter-bound radioactivity are counted using a Compugamma counter (LKB Wallac, Turku, Finland). Competition experiments are performed to investigate the ability of reference compounds and embodiments of the invention to inhibit [^3H] HEMADO binding. Non-specific binding are determined using the respective compound at its highest concentration.
Data Analysis: The Kd and Bmax values for binding data are calculated based upon the molar amounts of bound and free [^3H] HEMADO. […] IC50 and Ki values and Hill slopes for inhibition of the radioligand binding by the compounds of the invention are calculated from the ligand competition curves using the Excel spreadsheet and the Kd value calculated for either [^3H] HEMADO or [^3H] DPCPX. The results are expressed as a percent of control specific binding and as a percent inhibition of control specific binding obtained in the presence of the compounds of the invention. The IC50 values (concentration causing a half-maximal inhibition of control specific binding) and Hill coefficients (nH) are determined by non-linear regression analysis of the competition curves generated with mean replicate values using Hill equation curve fitting: […]

Assay [1] concerns the target T2, human adenosine A3 receptor (Homo sapiens, UniProt P0DMS8).
T2 construct: expressed in transfected cells; host or cells: CHO-K1 cells, stably transfected
T2 sequence (P0DMS8 1-318): T1 sequence (P0DMS8 1-318)
In words: Intracellular cAMP levels (inhibition of forskolin-stimulated cAMP production). The settings on record: for EC50: CHO-K1 cells expressing human adenosine A3 receptor, forskolin 10 μM; for cAMP Efficacy (%): maximal response as percentage of the response produced by 100 nM IB-MECA. It is filed as cell-based. The source says:
The method followed is that published in Yates L, Clark J H, Martin T J, James S, Broadley K J, Kidd E J. Radioligand binding and functional responses of ligands for human recombinant adenosine A3 receptors. Auton Autacoid Pharmacol. 2006 April; 26 (2): 191-200.
Materials and Cell Culture: Adenosine deaminase is obtained from Roche (Lewes, UK). Forskolin is obtained from Sigma-Aldrich (Poole, UK). The sources of other materials are provided above in Example 1. CHO-K1 cells stably transfected with the human adenosine A3 receptor are grown in Dulbecco's modified Eagles medium with nutrient mixture F12 containing NaHCO3 and Glutamax. Media is supplemented with 10% fetal calf serum, geneticin (G418; 0.67 mg/mL), hygromycin (500 μg/mL) and adenosine deaminase (1 U/mL). Cells are maintained at 37° C. with 5% CO2 in air.
CAMP Measurements: Intracellular cAMP production is measured directly using a non-acetylation cAMP enzyme immunoassay (Amersham Biosciences, Little Chalfont, UK). Cultured CHO cells expressing human adenosine A3 receptors are allowed to plate overnight in 96-well plates in culture medium containing adenosine deaminase. Twenty-four hours later, they are incubated with adenosine analogues or compounds of the invention (0.1 nM-1 μM) for 5 min at 37° C., followed by incubation with forskolin (10 μM) for 10 min. The cells are then lysed with 200 μL of lysis reagent 1 provided with the kit for 10 min to release intracellular CAMP. Aliquots of the supernatants are then transferred to a 96-well microtitre plate coated with donkey anti-rabbit IgG; 100-μL cAMP standards (12.5-3200 fmol/well) are also added to the microtitre plate; 100 μL of rabbit anti-cAMP antibody is added to all wells and incubated at 2-5° C. for 2 h. The antiserum is made up in lysis reagent 2, which sequesters the key component in lysis reagent 1 and ensures that CAMP is free for subsequent analysis. Then 50 μL of cAMP peroxidase conjugate is added to all wells and left to incubate for 60 min at 2-5° C. to allow competition for the antibody between the un-labelled and horse radish peroxidase (HRP)-labelled cAMP. Wells are then ished with buffer and 150 μL of enzyme substrate containing 3,3′,5,5′-tetramethylbenzidine/hydrogen peroxide in 20% (v/v) dimethylformamide is added to each well and left to incubate for 60 min on a Titramax 100 microtitre plate shaker (Heidolph Instruments, Schwabach, Germany) at room temperature for color development. The reaction is stopped by the addition of 100 μL of 1 M sulfuric acid and the optical density (OD) read at 450 nm on a spectrophotometric MRX microplate reader (Dynex Technologies, Chantilly, VA, USA).
Analyses: Each sample/standard was analyzed in duplicate and the resulting OD values averaged. The percent bound (B/B0) for each standard and sample was calculated using the following relationship:
[formula] • where B is the specific OD for standard/sample and B0 is the specific OD for the zero standard. A standard curve was generated by plotting % B/B0 as a function of the log fmol cAMP standard per well. The fmol per well value for cAMP in each sample was then read from the graph. The results are expressed as a percent of control agonist response: (measured response/control response)*100 in the presence of the compounds of the invention. Concentration-response curves for inhibition of cAMP production were constructed for all compounds of the invention and reference compounds. The EC50 values (concentration producing a half-maximal response) were determined by non-linear regression analysis of the concentration-response curves generated with mean replicate values using Hill equation curve fitting, according to the equation:
[formula] • where Y=response, A=left asymptote of the curve, D=right asymptote of the curve, C=compound concentration, and C50=EC50, and nH=slope factor. […]
In general terms: Cyclic AMP is a second messenger, typically raised through Gs and lowered through Gi signalling.

Setting [2] is: Table 1, membranes of HEK-293 cells expressing human A3 receptor.
Setting [3] is: Table 2, membranes of HEK-293 cells expressing human A3 receptor.
[4] abbreviates: Table 2, # = average between two data points.

Each structure is given as a SMILES string. Read-outs that look alike come from different tables or passages of the source.

These results are taken from patent US20260008805A1, “ADENOSINE ANALOGS FOR THE TREATMENT OF DISEASE” (BIOINTERVENE, INC., priority 2022, published 2026).

A word on the Ki: it is the equilibrium dissociation constant of an inhibitor or competing ligand from its target. As a reminder, the EC50 is the concentration giving half of the maximal effect. A lower EC50 goes with an effect from little substance. Take `N#Cc1cc(NCc2cc(Cl)ccc2Cl)c2ncn([C@H]3[C@H](O)[C@H](O)[C@]4(c5ncc[nH]5)C[C@H]34)c2n1` [Compound 8B]: the Ki at human A3 receptors (setting [2]) was 12.1 nM. In assay [1] (Table 1), the EC50 is 1.87 nM and the “cAMP Efficacy (%)” value was determined as 104.81%.
In the same order, the values of `O[C@H]1[C@H](n2cnc3c(NCC(F)F)cc(Cl)nc32)[C@H]2C[C@@]2(c2ncn[nH]2)[C@H]1O` [Compound 14B] are 21.7 nM, 27.2 nM and 89.97%.
On the same counts, the results for `Cn1nnc([C@@]23C[C@@H]2[C@@H](n2cnc4c5[nH]c(CO)cc5c(Cl)nc42)[C@H](O)[C@@H]3O)n1` [Compound 5B] are 2.83 nM, 3 nM and 34.29%.
Take `Cc1cc2c(Cl)nc3c(ncn3[C@H]3[C@H](O)[C@H](O)[C@]4(C(N)=O)C[C@H]34)c2[nH]1` [25A*]: the Ki on human A3 receptors (setting [3]) came to 24.2 nM. Further, in assay [1] (setting [4]), the EC50 was 4.15 nM and the “cAMP Efficacy (%)” value was determined as 96.54%.
On the same counts, the results for `O[C@H]1[C@H](n2cnc3c4[nH]c(Cc5ccccc5)cc4c(Cl)nc32)[C@H]2CC2[C@H]1O` (some centres unmarked) [9A*] are 5.34 nM, 2.15 nM and 74.92%.
In the same order, the values of `Cc1cc2c(C#CC3CC3)nc3c(ncn3[C@H]3[C@H](O)[C@H](O)C4C[C@@H]43)c2[nH]1` (some centres unmarked) [7A*] are 0.619 nM, 0.91 nM and 47.98%.
As to `CCNc1cc(Cl)nc2c1ncn2[C@H]1[C@H](O)[C@H](O)[C@]2(c3ncco3)C[C@H]12` [Compound 10B], the Ki at human A3 receptors (setting [2]) stood at 41 nM. Moreover, in assay [1] (Table 1), the response was half-maximal at 16.1 nM (EC50) and the “cAMP Efficacy (%)” value is 70.12%.
For `CNC(=O)[C@@]12C[C@@H]1[C@@H](n1cnc3c4c(c(Cl)nc31)C(O)CC(C)N4)[C@H](O)[C@@H]2O` (some centres unmarked) [8A* and 8B*], the Ki at human A3 receptors (setting [3]) turned out to be 5.84 nM. Besides, in assay [1] (setting [4]), the EC50 came to 6 nM and the “cAMP Efficacy (%)” value turned out to be 107.96%.
For `CCNc1cc(Cl)nc2c1ncn2[C@H]1[C@H](O)[C@H](O)[C@]2(c3nnn(C)n3)C[C@H]12` [Compound 13B], on human A3 receptors (setting [2]), the Ki amounted to 2.1 nM. Also, in assay [1] (Table 1), the “cAMP Efficacy (%)” value came to 2%.
For the molecule `Cc1cc2c(Cl)nc3c(ncn3[C@H]3[C@H](O)[C@H](O)C4C[C@@H]43)c2[nH]1` (some centres unmarked) [15A*], at human A3 receptors (setting [3]), the Ki amounted to 2.27 nM. In addition, in assay [1] (setting [4]), it took 0.2 nM to reach a half-maximal effect (EC50) and the “cAMP Efficacy (%)” value is listed as 94.66^# %.
With `Cc1cc2c(Cl)nc3c(ncn3[C@@H]3O[C@H](CO)[C@@H](O)[C@H]3O)c2[nH]1` [6A*], the inhibition constant Ki at human A3 receptors (setting [3]) came to 1.33 nM. For the same molecule, in assay [1] (setting [4]), a half-maximal effect (EC50) was put at 0.38 nM and the “cAMP Efficacy (%)” value stood at 102.76%.
On the same counts, the results for `CC1CCc2c(Cl)nc3c(ncn3[C@H]3[C@H](O)[C@H](O)C4C[C@@H]43)c2N1` (some centres unmarked) [16A*] are 45.7 nM, 5.36 nM and 55.74%.
For the molecule `Cc1cc2c(Cl)nc3c(ncn3[C@H]3[C@H](O)[C@H](O)[C@]4(c5ncn(C)n5)C[C@H]34)c2[nH]1` [Compound 2B], at human A3 receptors (setting [2]), the Ki stood at 1.24 nM. Further, in assay [1] (Table 1), a half-maximal response (EC50) required 0.17 nM and the “cAMP Efficacy (%)” value was 104%.
Regarding `Cn1nnc([C@@]23C[C@@H]2[C@@H](n2cnc4c5[nH]c(C=O)cc5c(Cl)nc42)[C@H](O)[C@@H]3O)n1` [Compound 4B], the Ki at human A3 receptors (setting [2]) was 2.72 nM. For the same molecule, in assay [1] (Table 1), the EC50 was determined as 100 nM and the “cAMP Efficacy (%)” value was 10%.
